Experimental data as given in paper PMC11599207, “Identification of IspD as a novel target for tuberculosis treatment using compound M6” (Frontiers in Microbiology, 2024).

Target: T1, IspD (2-C-methyl-D-erythritol 4-phosphate cytidylyltransferase) (Mycolicibacterium smegmatis, UniProt A0R560)
T1 construct: recombinant IspD from pET28a-ispD, His trap purified, approximately 26 kDa
T1 sequence (A0R560 1-222): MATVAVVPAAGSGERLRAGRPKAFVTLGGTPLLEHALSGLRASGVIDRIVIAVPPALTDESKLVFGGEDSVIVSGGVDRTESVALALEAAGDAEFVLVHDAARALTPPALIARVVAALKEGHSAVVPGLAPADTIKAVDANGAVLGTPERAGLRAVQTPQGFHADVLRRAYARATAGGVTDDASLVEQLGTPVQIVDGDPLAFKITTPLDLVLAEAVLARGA
Assay: ammonium molybdate pyrophosphate absorbance assay; double-reciprocal kinetics
Type: biochemical

Compound | ammonium molybdate pyrophosphate absorbance assay; double-reciprocal kinetics
Nc1ccn([C@@H]2O[C@H](COP(=O)(O)OP(=O)(O)OP(=O)(O)O)[C@@H](O)[C@H]2O)c(=O)n1 [CTP] | M6 acts as a non-competitive inhibitor of the substrate CTP (Figure 3D)
C[C@](O)(CO)[C@H](O)COP(=O)(O)O [MEP, 2-C-methyl-D-erythritol 4-phosphate] | indicating that M6 acts as a non-competitive inhibitor of the substrate MEP
